Values after ≈ are worked out from the molar mass of the structure shown. Active and inactive are the calls of the source. The calls are words filed in the database; no cut-off is given here.
Assays:
[1] = In vitro therapeutic index (calculated as CC50/MIC (Candida albicans)).; type: functional
[2] = tested on: HEp-2; assay: In vitro cytotoxic concentration against Hep2 cells.; type: functional; conditions: Homo sapiens
[3] = tested on: Nakaseomyces glabratus; assay: Minimum inhibitory concentration required to inhibit 90 to 100% visible growth of Candida glabrata; type: functional
[4] = tested on: Candida albicans; assay: Minimum inhibitory concentration to inhibit 90 to 100% visible growth of Candida albicans; type: functional
[5] = tested on: HEp-2; assay: Cytotoxic concentration against Hep2 cells; activation observed, but IC50 could not be determined; type: functional, cell-based; conditions: Homo sapiens

| MIC [3] [µg/mL] | MIC [4] [µg/mL] | Compound | Therapeutic index [1] | CC50 [2] [µg/mL] | CC50 [5] |
| --- | --- | --- | --- | --- | --- |
| 32 (≈ 76.8 µM) | 4 (≈ 9.6 µM) | CCCCCCC(O)C12C[C@@H]3[C@H](C)CC[C@H]3C3(C=O)CC1C=C(C(C)C)[C@@]23C(=O)O (stereo partly drawn) | 0.6 | 2.4 (≈ 5.76 µM) | – |
| 4 (≈ 9.65 µM) | 0.25 (≈ 0.603 µM) | CCCCCCC(=O)C12C[C@@H]3[C@H](C)CC[C@H]3C3(C=O)CC1C=C(C(C)C)[C@@]23C(=O)O | 6 | 1.5 (≈ 3.62 µM) | – |
| 32 (≈ 77.6 µM) | 8 (≈ 19.4 µM) | CCCCC#CC(O)C12C[C@@H]3[C@H](C)CC[C@H]3C3(C=O)CC1C=C(C(C)C)[C@@]23C(=O)O (stereo partly drawn) | 2.3 | 18.3 (≈ 44.4 µM) | – |
| 8 (≈ 18.7 µM) | 2 (≈ 4.67 µM) | CC(C)C1=CC2CC3(C=O)[C@@H]4CC[C@@H](C)[C@H]4CC2(C(O)CC2CCCCC2)[C@]13C(=O)O (stereo partly drawn) | 1.6 | 3.1 (≈ 7.23 µM) | – |
| 0.25 (≈ 0.57 µM) | < 0.06 | CC(C)CCCC#CC(=O)C12C[C@@H]3[C@H](C)CC[C@H]3C3(C=O)CC1C=C(C(C)C)[C@@]23C(=O)O | > 23.3 | 1.4 (≈ 3.19 µM) | – |
| 16 (≈ 36.5 µM) | 1 (≈ 2.28 µM) | CC(C)C1=CC2CC3(C=O)[C@@H]4CC[C@@H](C)[C@H]4CC2(C(O)C#CCC2CCCC2)[C@]13C(=O)O (stereo partly drawn) | 14.2 | 14.2 (≈ 32.4 µM) | – |
| 32 (≈ 74.3 µM) | 1 (≈ 2.32 µM) | CC(C)CCCCC(O)C12C[C@@H]3[C@H](C)CC[C@H]3C3(C=O)CC1C=C(C(C)C)[C@@]23C(=O)O (stereo partly drawn) | 1.2 | 1.2 (≈ 2.79 µM) | – |
| 16 (≈ 37.2 µM) | > 128 | CC(C)C1=CC2CC3(C=O)[C@@H]4CC[C@@H](C)[C@H]4CC2(C(=O)C#Cc2ccccc2)[C@]13C(=O)O | 0.09 | > 12 | – |
| 1 (≈ 2.5 µM) | > 128 | CC(C)CCC(=O)C12C[C@@H]3[C@H](C)CC[C@H]3C3(C=O)CC1C=C(C(C)C)[C@@]23C(=O)O | < 0.02 | 2.5 (≈ 6.24 µM) | – |
| 8 (≈ 18.8 µM) | 1 (≈ 2.34 µM) | CC(C)CCC#CC(O)C12C[C@@H]3[C@H](C)CC[C@H]3C3(C=O)CC1C=C(C(C)C)[C@@]23C(=O)O (stereo partly drawn) | 15.8 | 15.8 (≈ 37 µM) | – |
| 1 (≈ 2.34 µM) | 0.5 (≈ 1.17 µM) | CC(C)C1=CC2CC3(C=O)[C@@H]4CC[C@@H](C)[C@H]4CC2(C(=O)CC2CCCCC2)[C@]13C(=O)O | 3.6 | 1.8 (≈ 4.22 µM) | – |
| 64 (≈ 159 µM) | 16 (≈ 39.7 µM) | CC(C)CCC(O)C12C[C@@H]3[C@H](C)CC[C@H]3C3(C=O)CC1C=C(C(C)C)[C@@]23C(=O)O (stereo partly drawn) | – | – | inactive |
| 0.5 (≈ 1.11 µM) | < 0.06 | CC(C)C1=CC2CC3(C=O)[C@@H]4CC[C@@H](C)[C@H]4CC2(C(=O)C#CCC2CCCCC2)[C@]13C(=O)O | > 23.3 | 1.4 (≈ 3.11 µM) | – |
| 4 (≈ 8.84 µM) | 0.25 (≈ 0.552 µM) | CC(C)C1=CC2CC3(C=O)[C@@H]4CC[C@@H](C)[C@H]4CC2(C(O)C#CCC2CCCCC2)[C@]13C(=O)O (stereo partly drawn) | 42.8 | 10.7 (≈ 23.6 µM) | – |
| 0.5 (≈ 1.22 µM) | < 0.06 | CCCCC#CC(=O)C12C[C@@H]3[C@H](C)CC[C@H]3C3(C=O)CC1C=C(C(C)C)[C@@]23C(=O)O | > 55 | 3.3 (≈ 8.04 µM) | – |
| > 128 | 0.5 (≈ 1.13 µM) | CC(C)C1=CC2CC3(C=O)[C@@H]4CC[C@@H](C)[C@H]4CC2(C(=O)CCC2CCCCC2)[C@]13C(=O)O | 3.6 | 1.8 (≈ 4.09 µM) | – |
